pIC50: −log10 of the molar value. Like-named read-outs stand apart in the source and are kept apart here.
Experiments:
[1] = system: Hedgehog pathway activation on 10T1/2/Smo#3 cells (C3H10T1/2 cells transfected with human Smoothened receptor); experiment: Hedgehog pathway activation on 10T1/2/Smo#3 cells measured by ALP activity; format: cell-based
In short: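 C3H10T1/2 cells stably expressing human Smoothened were activated with hShh-conditioned medium (10-20%) or 500 nM SAG, with test compounds present. Pathway block read as inhibited ALP activity (4-methylumbelliferyl phosphate fluorescence); viability checked by CellTiter-Blue. IC50 values reported.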

[2] = system: Hedgehog pathway activation (GLi-luciferase reporter) in Shh Light II reporter cells; experiment: Hedgehog pathway activation on Shh Light II reporter cells measured by luciferase activity; format: cell-based
In short: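 Shh Light II reporter cells carrying a hedgehog-responsive GLi-luciferase reporter were stimulated either with 500 nM SAG, a direct Smoothened agonist, or with conditioned media containing human Sonic Hedgehog (hShh). Test compounds were evaluated for blocking this pathway activation, quantified by luciferase activity. Cell viability was monitored in parallel with the Celltiter-Blue® assay.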

[3] = Mus musculus, C3H 10T1/2, 10T1/2/Smo#3 cells, measured by ALP activity, read-out: ALP (IC50, inhibition of Hedgehog pathway activation)
[4] = Mus musculus, Shh Light II, hShh activation, read-out: Shh (IC50, inhibition of Hedgehog pathway activation)
[5] = 10T1/2/Smo#3 cells, measured by ALP activity, read-out: ALP (IC50, inhibition of Hedgehog pathway activation)
[6] = hShh activation, read-out: Shh (IC50, inhibition of Hedgehog pathway activation)

Compound | pIC50 [1, 3] | pIC50 [2, 4] | other results
Cc1ccc(-c2cn3nc(-c4cc(C#N)ccc4C)ccc3n2)cc1NC(=O)C(C)(C)C [Example 450, N-(5-(6-(5-cyano-2-methylphenyl)imidazo[1,2-b]pyridazin-2-yl)-2-methylphenyl)pivalamide] | 6.47 | 6.49 | pIC50 ([1]; Mus musculus, C3H 10T1/2, 10T1/2/Smo#3 cells, hShh activation, ALP activity, read-out: 10T1/2/Smo#3 ALP activity (hShh Activation)): > 6.52; pIC50 ([2]; Mus musculus, Shh Light II, SAG activation (500 nM SAG), read-out: Shh Light II luciferase activity (SAG activation)): > 6.52; pIC50 ([2]; Mus musculus, Shh Light II, hShh activation, read-out: Shh Light II luciferase activity (hShh activation)): > 6.52
Cc1ccc(-c2cn3nc(-c4cccc(S(=O)(=O)N(C)C)c4)ccc3n2)cc1NC(=O)C(C)(C)C [Example 451, N-(5-(6-(3-(N,N-dimethylsulfamoyl)phenyl)imidazo[1,2-b]pyridazin-2-yl)-2-methylphenyl)pivalamide] | 6.00 | 6.02 | –
CNC(=O)c1cccc(-c2ccc3nc(-c4ccc(C)c(NC(=O)C(C)(C)C)c4)cn3n2)c1 [Example 453, N-methyl-3-(2-(4-methyl-3-pivalamidophenyl)imidazo[1,2-b]pyridazin-6-yl)benzamide] | 6.12 | 6.24 | –
C[C@@H]1CCCC[C@H]1Oc1ccc2nc(-c3ccc(C(F)(F)F)c(NC(=O)C(C)(C)C)c3)cn2n1 [Example 464, N-(5-(6-((1R,2R)-2-methylcyclohexyloxy)imidazo[1,2-b]pyridazin-2-yl)-2-(trifluoromethyl)phenyl)pivalamide] | 6.40 | 6.45 | –
CC(C)(C)C(=O)Nc1cc(-c2cn3nc(N4CCC(O)C4)ccc3n2)ccc1C(F)(F)F (centres unmarked) [Example 467, N-(5-(6-(3-hydroxypyrrolidin-1-yl)imidazo[1,2-b]pyridazin-2-yl)-2-(trifluoromethyl)phenyl)pivalamide] | – | – | pIC50 [1, 5]: 6.94; pIC50 [2, 6]: 6.94
CC(C)(C)C(=O)Nc1cc(-c2cn3nc(N4CCCC(O)C4)ccc3n2)ccc1C(F)(F)F (centres unmarked) [Example 471, N-(5-(6-(3-hydroxypiperidin-1-yl)imidazo[1,2-b]pyridazin-2-yl)-2-(trifluoromethyl)phenyl)pivalamide] | 6.35 | – | pIC50 [2, 6]: 6.82
CNC1CCN(c2ccc3nc(-c4ccc(C)c(NC(=O)C(C)(C)C)c4)cn3n2)C1 (centres unmarked) [Example 473, N-(2-methyl-5-(6-(3-(methylamino)pyrrolidin-1-yl)imidazo[1,2-b]pyridazin-2-yl)phenyl)pivalamide] | – | – | pIC50 [1, 5]: 7.03; pIC50 [2, 6]: 7.11
CCOC(=O)COc1ccc(C(F)(F)F)c(-c2ccc3nc(-c4ccc(C)c(NC(=O)C(C)(C)C)c4)cn3n2)c1 [Example 477, ethyl 2-(3-(2-(4-methyl-3-pivalamidophenyl)imidazo[1,2-b]pyridazin-6-yl)-4-(trifluoromethyl)phenoxy)acetate] | 6.28 | 6.61 | –
Cc1ccc(-c2cn3nc(-c4ccc(C#N)cc4C(F)(F)F)ccc3n2)cc1NC(=O)C(C)(C)C [Example 478, N-(5-(6-(4-cyano-2-(trifluoromethyl)phenyl)imidazo[1,2-b]pyridazin-2-yl)-2-methylphenyl)pivalamide] | 6.49 | 7.10 | –

Now from value to compound, other results behind:

pIC50 [1, 3] | pIC50 [2, 4] | Compound | other results
7.64 | 7.36 | Cc1ccc(-c2cn3nc(N4CCC(O)C4)ccc3n2)cc1NC(=O)C(C)(C)C (centres unmarked) [Example 468, N-(5-(6-(3-hydroxypyrrolidin-1-yl)imidazo[1,2-b]pyridazin-2-yl)-2-methylphenyl)pivalamide] | –
7.55 | 7.19 | CN(C)[C@@H]1CCN(c2ccc3nc(-c4ccc(C(F)(F)F)c(NC(=O)C(C)(C)C)c4)cn3n2)C1 [Example 470, (R)-N-(5-(6-(3-(dimethylamino)pyrrolidin-1-yl)imidazo[1,2-b]pyridazin-2-yl)-2-(trifluoromethyl)phenyl)pivalamide] | –
6.96 | 7.08 | Cc1ccc(-c2cn3nc(N4CC[C@@H](N(C)C)C4)ccc3n2)cc1NC(=O)C(C)(C)C [Example 472, (R)-N-(5-(6-(3-(dimethylamino)pyrrolidin-1-yl)imidazo[1,2-b]pyridazin-2-yl)-2-methylphenyl)pivalamide] | –
7.47 | 7.51 | CCNC1CCN(c2ccc3nc(-c4ccc(C)c(NC(=O)C(C)(C)C)c4)cn3n2)C1 (centres unmarked) [Example 474, N-(5-(6-(3-(ethylamino)pyrrolidin-1-yl)imidazo[1,2-b]pyridazin-2-yl)-2-methylphenyl)pivalamide] | –
